This experiment has as its system vasodepressor response of exogenous bradykinin. Put plainly: Inhibition of the vasodepressor response to exogenous bradykinin in awake rats. Type of experiment: in vivo, Wistar rats. As to the method:
An adamantane acetic acid-modified bradykinin analog was synthesized by the solid-phase method described in Example 1. The analog designed by Stewart et al. was also synthesized and used as a control. The control (or model) and test analogs had the following structure: Model: D-Arg-Arg-Pro-Hyp-Gly-Thi-Ser-D-Phe-Thi-Arg Test: [formula] The antagonistic potency of the analogs was assessed by their ability to inhibit the vasodepressor response of exogenous bradykinin in awake rats.
Intact male Wistar rats (Charles River Breeding Laboratories, Wilmington, MA, U.S.A.) weighing 225-250 g were used and maintained on a regular Purina Rat Chow diet and tap water in a room at constant temperature (23 ± 1°C) with 12 hour dark/12 hour light cycles. One day before the experiment, the right carotid and the iliac artery in the rats were catheterized with polyethylene tubing (PE 50) under light ether anesthesia. A "Y" type connection was connected to the carotid artery catheter with two ends: one for injecting bradykinin and the other for infusing the bradykinin analogs. All of the catheters were externalized subcutaneously at the back of the neck. On the day of the experiment, the rats were maintained conscious and unrestrained in plastic cages. Arterial pressure (AP), mean arterial pressure (MAP) and heart rate (HR) were monitored through a Gould-Statham P23 ID pressure transducer (Gould, Cleveland, OH) connected to the iliac catheter and recorded on a Gould 2200S paper chart recorder. A half-hour period was allowed before the actual initiation of the experiment. […]
The effectiveness of each analog was tested by regression analysis of the data obtained in each rat, using a logarithmic transformation of the linear portion of each dose-response curve to calculate the ED₂₂ and ED₉₀ values. The comparison between the two analogs at the same dose was determined using the Students Nonpaired T Test. […]
The pA₂ is the most commonly used parameter to quantitatively express the potency of an antagonist. […]

Square brackets hold non-standard residues; d marks the D form. Peptide text beside a SMILES is read from it. Hyp = O=C(O)[C@@H]1C[C@@H](O)CN1; 2Thi = N[C@@H](Cc1cccs1)C(=O)O

Turning to `N=C(N)NCCC[C@@H](N)C(=O)N[C@@H](CCCNC(=N)N)C(=O)N1CCC[C@H]1C(=O)N1C[C@H](O)C[C@H]1C(=O)NCC(=O)N[C@@H](Cc1cccs1)C(=O)N[C@@H](CO)C(=O)N[C@H](Cc1ccccc1)C(=O)N[C@@H](Cc1cccs1)C(=O)N[C@@H](CCCNC(=N)N)C(=O)O` [Model Analog, D-Arg-Arg-Pro-Hyp-Gly-Thi-Ser-D-Phe-Thi-Arg] (H-[dR]RP[Hyp]G[2Thi]S[dF][2Thi]R-OH), the ED₂₂ (dose of analog infused (intracarotid) which inhibits 22% of the vasodepressor response to 250 ng of BK, conscious rats pretreated with enalapril 1 mg/kg, 7 rats, mean ± SE) was 1.49 ± 0.29 µg/min. The ED₉₀ (dose of analog infused (intracarotid) which inhibits 90% of the vasodepressor response to 250 ng of BK, conscious rats pretreated with enalapril 1 mg/kg, 7 rats, mean ± SE) came to 142.50 ± 26.44 µg/min. In addition, where the note is “negative logarithm of ED value (ED₂₂) divided by estimated volume of distribution (67ml/kg)”, the “pA₂ (anti-vasodepressor potency)” value is listed as 7.17±0.11.

The values are drawn from patent publication EP0502987B1, “ACYLATED BRADYKININ ANTAGONISTS AND USES THEREFOR” (TRUSTEES OF BOSTON UNIVERSITY, priority 1989, dated 1994).
